Each structure is given as a SMILES string.

Assay [1] deals with IDH1R132C (Homo sapiens (Human), UniProt O75874, R132C). Briefly: Inhibitory activity against IDH1R132C enzyme (NADPH detection, WST-8). The class given is biochemical. The settings on record: 10 nM, residual NADPH detected with WST-8, read-out: Test Example 1 IDH1 R132C IC50. (Tetrazolium assays rely on reduction of a dye to a coloured formazan, in cell work by metabolically active cells.)

In assay [2] the test system is HT-1080 cells expressing IDH1R132C. Briefly: 2-HG production inhibitory activity using HT1080 cell. The assay is classed as cell-based, human. To be noted: Homo sapiens, HT-1080; 2-HG production, HT1080 cells; read-out: Test Example 3 IC50. On the procedure:
Then, 100 μL of growth medium B was added to each well, further 25 μL of a solution of each compound diluted to a predetermined concentration with growth medium B was added to each well, and the cells were incubated at 37° C. for 2 days under 5% CO2. […] Then, 150 μL of ultrapure water was further added to each well, and the mixture was stirred by pipetting and stored at −20° C.
The preserved solutions were thawed at room temperature.

For assay [3], the system named is HT1080 xenografted mice (IDH1R132C). Briefly: 2-HG production inhibitory activity using HT1080 xenografted mice. The assay is classed as in vivo, mouse. To be noted: Mus musculus, HT-1080, po, 6 h, 2-HG production, HT1080 xenografted mice; read-out: Test Example 5 Ratio (%). In a few lines: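 Mice bearing HT1080 tumors received 75 mg/kg compound by oral gavage twice a day, three doses in total, at 10 mL/kg; vehicle-dosed mice were negative controls. Tumors were collected 6 h after the final dose, frozen, homogenized in methanol and centrifuged, and 2-HG was measured in the extracts.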

Sequence of IDH1R132C (O75874 whole entry R132C): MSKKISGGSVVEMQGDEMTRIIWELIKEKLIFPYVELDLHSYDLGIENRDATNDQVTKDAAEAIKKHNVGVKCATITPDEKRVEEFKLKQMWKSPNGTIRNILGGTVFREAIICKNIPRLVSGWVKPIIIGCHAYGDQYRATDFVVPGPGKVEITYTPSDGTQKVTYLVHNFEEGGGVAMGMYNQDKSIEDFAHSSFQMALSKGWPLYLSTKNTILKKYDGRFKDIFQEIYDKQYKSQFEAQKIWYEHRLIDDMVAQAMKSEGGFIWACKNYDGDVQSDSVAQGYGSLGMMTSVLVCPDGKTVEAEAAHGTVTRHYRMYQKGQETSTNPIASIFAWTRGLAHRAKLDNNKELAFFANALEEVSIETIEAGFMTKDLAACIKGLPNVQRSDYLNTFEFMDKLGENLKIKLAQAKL

With `CC(C)(F)c1onc(-c2ccc(Cl)cc2Cl)c1C(=O)n1cc2c3c(cccc31)/C(=C/C(=O)O)CC2` [Example 69, (2E)-[1-{[3-(2,4-Dichlorophenyl)-5-(2-fluoropropan-2-yl)-1,2-oxazol-4-yl]carbonyl}-3,4-dihydrobenzo[cd]indol-5(1H)-ylidene]ethanoic acid], the IC50 in assay [1] was 168 nM; in assay [2] it was 197 nM. Also, the response vs control in vivo at 75 mg/kg in assay [3] is 20%.

Regarding `Cc1cn(C(=O)c2c(-c3c(Cl)cc(C4CC4)cc3Cl)noc2C(C)(C)F)c2cccc(/C=C/C(=O)O)c12` [Example 70, (2E)-3-(1-{[3-(2,6-Dichloro-4-cyclopropylphenyl)-5-(2-fluoropropan-2-yl)-1,2-oxazol-4-yl]carbonyl}-3-methyl-1H-indol-4-yl)prop-2-enoic acid], the values for the IC50 in assay [1] and in assay [2] were 153 nM and 71 nM, respectively. Further, the response vs control in vivo at 75 mg/kg in assay [3] came out at 41%.

As for `CC(C)(C)c1onc(-c2c(Cl)cc(Cl)cc2Cl)c1C(=O)n1cc(C(F)F)c2c(/C=C/C(=O)O)cccc21` [Example 72, (2E)-3-(1-{[5-(tert-Butyl)-3-(2,4,6-trichlorophenyl)-1,2-oxazol-4-yl]carbonyl}-3-(difluoromethyl)-1H-indol-4-yl)prop-2-enoic acid], the IC50 in assay [1] was found to be 201 nM; in assay [2] it was 59 nM. Besides, the response vs control in vivo at 75 mg/kg in assay [3] came out at 46%.

As to `COC1(c2onc(-c3c(Cl)cc(Cl)cc3Cl)c2C(=O)n2ccc3c(/C=C/C(=O)O)cccc32)CCC1` [Example 74, (2E)-3-(1-{[5-(1-Methoxycyclobutyl)-3-(2,4,6-trichlorophenyl)-1,2-oxazol-4-yl]carbonyl}-1H-indol-4-yl)prop-2-enoic acid], the figures for the IC50 in assay [1] and in assay [2] were 175 nM and 118 nM, respectively. In assay [3], the response vs control in vivo at 75 mg/kg came to 20%.

For `COC1(c2onc(-c3c(Cl)cc(Cl)cc3Cl)c2C(=O)n2cc(C)c3c(/C=C/C(=O)O)cccc32)CCC1` [Example 79, (2E)-3-(1-{[5-(1-Methoxycyclobutyl)-3-(2,4,6-trichlorophenyl)-1,2-oxazol-4-yl]carbonyl}-3-methyl-1H-indol-4-yl)prop-2-enoic acid], the IC50 is 161 nM in assay [1] and 35 nM in assay [2]. Also, the response vs control in vivo at 75 mg/kg in assay [3] is 15%.

As for `Cc1cn(C(=O)c2c(-c3c(Cl)cc(Cl)cc3Cl)noc2C2(N(C)C)CCC2)c2cccc(/C=C/C(=O)O)c12` [Example 81, (2E)-3-(1-{[5-[1-(Dimethylamino)cyclobutyl]-3-(2,4,6-trichlorophenyl)-1,2-oxazol-4-yl]carbonyl}-3-methyl-1H-indol-4-yl)prop-2-enoic acid], the values for the IC50 in assay [1] and in assay [2] were 163 nM and 31 nM, respectively. Further, the response vs control in vivo at 75 mg/kg in assay [3] was determined as 15%.

Consider `CNC1(c2onc(-c3c(Cl)cc(Cl)cc3Cl)c2C(=O)n2cc(C)c3c(/C=C/C(=O)O)cccc32)CCC1` [Example 83, (2E)-3-(3-Methyl-1-{[5-[1-(methylamino)cyclobutyl]-3-(2,4,6-trichlorophenyl)-1,2-oxazol-4-yl]carbonyl}-1H-indol-4-yl)prop-2-enoic acid], for which the IC50 in assay [1] turned out to be 87 nM; in assay [2], 33 nM. In addition, the response vs control in vivo at 75 mg/kg in assay [3] turned out to be 23%.

Turning to `C=CC(=O)N(C)C1(c2onc(-c3c(Cl)cc(Cl)cc3Cl)c2C(=O)n2cc(C)c3c(/C=C/C(=O)O)cccc32)CCC1` [Example 87, (2E)-3-(1-{[5-{1-[Acryloyl(methyl)amino]cyclobutyl}-3-(2,4,6-trichlorophenyl)-1,2-oxazol-4-yl]carbonyl}-3-methyl-1H-indol-4-yl)prop-2-enoic acid], the results for the IC50 in assay [1] and in assay [2] were 145 nM and 71 nM, respectively. Besides, in assay [3], the response vs control in vivo at 75 mg/kg stood at 68%.

In the case of `C=CC(=O)N1CCC(c2onc(-c3c(Cl)cc(Cl)cc3Cl)c2C(=O)n2cc3c4c(cccc42)/C(=C/C(=O)O)CC3)CC1` [Example 94, (2E)-[1-{[5-(1-Acryloylpiperidin-4-yl)-3-(2,4,6-trichlorophenyl)-1,2-oxazol-4-yl]carbonyl}-3,4-dihydrobenzo[cd]indol-5(1H)-ylidene]ethanoic acid], the IC50 was determined as 159 nM in assay [1] and 3 nM in assay [2]. The response vs control in vivo at 75 mg/kg in assay [3] is 1%.

With `C=CC(=O)N1CC(c2onc(-c3c(Cl)cc(Cl)cc3Cl)c2C(=O)n2ccc3c(/C=C/C(=O)O)cccc32)C1` [Example 95], the values for the 50% inhibitory concentration (IC50) in assay [1] and in assay [2] were 67 nM and 89 nM, respectively. Further, the response vs control in vivo at 75 mg/kg in assay [3] turned out to be 44%.

As to `C=CC(=O)N1CCC(c2onc(-c3c(Cl)cc(Cl)cc3Cl)c2C(=O)n2ccc3c(/C=C/C(=O)O)cccc32)CC1` [Example 99], the IC50 in assay [1] is 272 nM; in assay [2] it was 34 nM. The response vs control in vivo at 75 mg/kg in assay [3] was 15%.

`C#CC(=O)N1CCC(c2onc(-c3c(Cl)cc(Cl)cc3Cl)c2C(=O)n2ccc3c(/C=C/C(=O)O)cccc32)CC1` [Example 100]: the IC50 in assay [1] amounted to 189 nM; in assay [2], 28 nM. The response vs control in vivo at 75 mg/kg in assay [3] is 75%.

Regarding `C=CS(=O)(=O)N1CCC(c2onc(-c3c(Cl)cc(Cl)cc3Cl)c2C(=O)n2ccc3c(/C=C/C(=O)O)cccc32)CC1` [Example 103], the IC50 in assay [1] amounted to 114 nM; in assay [2] it was 506 nM. Besides, the response vs control in vivo at 75 mg/kg in assay [3] turned out to be 90%.

Take `C=CC(=O)N1CCC(c2onc(-c3c(Cl)cc(Cl)cc3Cl)c2C(=O)n2cc(C)c3c(/C=C/C(=O)O)cccc32)CC1` [Example 104]: the IC50 in assay [1] came to 93 nM; in assay [2], 7 nM. Also, in assay [3], the response vs control in vivo at 75 mg/kg was found to be 8%.

As for `C=CC(=O)N1CCC(c2onc(-c3c(Cl)cc(Cl)cc3Cl)c2C(=O)n2ccc3c(C4CC4C(=O)O)cccc32)CC1` (stereo not drawn) [Example 105], the IC50 in assay [1] is 567 nM; in assay [2], 32 nM. In assay [3], the response vs control in vivo at 75 mg/kg is 27%.

With `C=CC(=O)N1CCC(c2onc(-c3ccc(Cl)cc3Cl)c2C(=O)n2cc(C)c3c(/C=C/C(=O)O)cccc32)CC1` [Example 106], the IC50 in assay [1] stood at 149 nM; in assay [2], 23 nM. For the same compound, in assay [3], the response vs control in vivo at 75 mg/kg worked out at 12%.

On to `C=CC(=O)N1CCC(c2onc(-c3c(Cl)cccc3Cl)c2C(=O)n2cc(C)c3c(/C=C/C(=O)O)cccc32)CC1` [Example 108], for which the values for the IC50 in assay [1] and in assay [2] were 149 nM and 38 nM, respectively. In addition, the response vs control in vivo at 75 mg/kg in assay [3] stood at 58%.

As to `C=CC(=O)N1CCC(c2onc(-c3c(C)cc(C)cc3C)c2C(=O)n2ccc3c(/C=C/C(=O)O)cccc32)CC1` [Example 109], the IC50 in assay [1] is 243 nM; in assay [2], 45 nM. In assay [3], the response vs control in vivo at 75 mg/kg was determined as 23%.

As for `C=CC(=O)N1CCC(c2onc(-c3c(C)cc(Cl)cc3C)c2C(=O)n2ccc3c(/C=C/C(=O)O)cccc32)CC1` [Example 110], the figures for the IC50 in assay [1] and in assay [2] were 316 nM and 48 nM, respectively. In assay [3], the response vs control in vivo at 75 mg/kg is 52%.

For the compound `C=CC(=O)N1CCC(c2onc(-c3c(Cl)cc(F)cc3Cl)c2C(=O)n2cc(C)c3c(/C=C/C(=O)O)cccc32)CC1` [Example 112], the IC50 turned out to be 115 nM in assay [1] and 12 nM in assay [2]. The response vs control in vivo at 75 mg/kg in assay [3] turned out to be 15%.

Turning to `C=CC(=O)N1CCC(C)(c2onc(-c3c(Cl)cc(Cl)cc3Cl)c2C(=O)n2cc(C)c3c(/C=C/C(=O)O)cccc32)CC1` [Example 113], the values for the IC50 in assay [1] and in assay [2] were 104 nM and 2 nM, respectively. The response vs control in vivo at 75 mg/kg in assay [3] was 13%.

As a reminder, the IC50 is the concentration at which inhibition is half-maximal.

Source of the values: patent US10040791B2, “Isoxazole derivative as mutant isocitrate dehydrogenase 1 inhibitor” (Daiichi Sankyo Company, Limited, priority 2014, dated 2018).
